According to the supplement of paper PMC10307832:

Tests used:
Test in all cases: relative viability (nuclei count vs DMSO), 5 days (fraction); higher = more cells survive
NCI-H441 = test system: NCI-H441
Method in brief: (§1)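 A single step with final 0.05% Triton X-100, 1% formaldehyde and 1 ug/ml Hoechst fixed the cells and stained nuclei 5 days after treatment. Lung cancer cell lines in 1536-well plates had been treated by pin tool the day after seeding with one drug alone or a fixed anchor-drug dose plus five library-drug doses (not always all listed) in √10 steps, and nuclei were counted on 4× images. Relative viability is the ratio of nuclei in treated wells to nuclei in vehicle wells, taken as the median of duplicate plates.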

NCI-H3122 = test system: NCI-H3122
Method in brief: as §1

EKVX = test system: EKVX
Method in brief: as §1

ABC-1 = test system: ABC-1
Method in brief: as §1

EPLC-272H = test system: EPLC-272H
Method in brief: as §1

PC-14 = test system: PC-14
Method in brief: as §1

COR-L23 = test system: COR-L23
Method in brief: as §1

RERF-LC-KJ = test system: RERF-LC-KJ
Method in brief: as §1

NCI-H2347 = test system: NCI-H2347
Method in brief: as §1

NCI-H2405 = test system: NCI-H2405
Method in brief: as §1

201T = test system: 201T
Method in brief: as §1

NCI-H1650 = test system: NCI-H1650
Method in brief: as §1

NCI-H1993 = details: first compound 0.04 µM
Method in brief: as §1

Clc1ccc(Nc2nnc(Cc3ccncc3)c3ccccc23)cc1 [Vatalanib] + N=C(N)NC(=N)NCCc1ccccc1 [Phenformin] (partner 250 µM)
relative viability (NCI-H441; first compound 0.04 µM): 0.904
relative viability (NCI-H441; first compound 0.1265 µM): 0.761
relative viability (NCI-H441; first compound 0.4 µM): 0.849
relative viability (NCI-H441; first compound 1.265 µM): 0.729
relative viability (NCI-H441; first compound 4 µM): 0.819
relative viability (NCI-H3122; first compound 0.04 µM): 0.401
relative viability (NCI-H3122; first compound 0.1265 µM): 0.365
relative viability (NCI-H3122; first compound 1.265 µM): 0.316
relative viability (NCI-H3122; first compound 4 µM): 0.323
relative viability (EKVX; first compound 0.04 µM): 0.232
relative viability (EKVX; first compound 0.1265 µM): 0.236
relative viability (EKVX; first compound 0.4 µM): 0.205
relative viability (EKVX; first compound 4 µM): 0.212
relative viability (ABC-1; first compound 0.04 µM): 0.241
relative viability (ABC-1; first compound 0.1265 µM): 0.242
relative viability (ABC-1; first compound 1.265 µM): 0.262
relative viability (ABC-1; first compound 4 µM): 0.222
relative viability (EPLC-272H; first compound 0.04 µM): 0.324
relative viability (EPLC-272H; first compound 0.1265 µM): 0.323
relative viability (EPLC-272H; first compound 0.4 µM): 0.275
relative viability (EPLC-272H; first compound 1.265 µM): 0.349
relative viability (EPLC-272H; first compound 4 µM): 0.348
relative viability (PC-14; first compound 0.04 µM): 0.552
relative viability (PC-14; first compound 0.1265 µM): 0.466
relative viability (PC-14; first compound 1.265 µM): 0.458
relative viability (PC-14; first compound 4 µM): 0.541
relative viability (COR-L23; first compound 0.04 µM): 0.442
relative viability (COR-L23; first compound 0.1265 µM): 0.43
relative viability (COR-L23; first compound 0.4 µM): 0.467
relative viability (COR-L23; first compound 1.265 µM): 0.389
relative viability (COR-L23; first compound 4 µM): 0.402
relative viability (RERF-LC-KJ; first compound 0.04 µM): 0.479
relative viability (RERF-LC-KJ; first compound 0.1265 µM): 0.41
relative viability (RERF-LC-KJ; first compound 0.4 µM): 0.443
relative viability (RERF-LC-KJ; first compound 1.265 µM): 0.341
relative viability (RERF-LC-KJ; first compound 4 µM): 0.425
relative viability (NCI-H2347; first compound 0.04 µM): 0.323
relative viability (NCI-H2347; first compound 0.1265 µM): 0.426
relative viability (NCI-H2347; first compound 0.4 µM): 0.401
relative viability (NCI-H2347; first compound 1.265 µM): 0.266
relative viability (NCI-H2347; first compound 4 µM): 0.389
relative viability (NCI-H2405; first compound 0.04 µM): 0.425
relative viability (NCI-H2405; first compound 0.1265 µM): 0.376
relative viability (NCI-H2405; first compound 1.265 µM): 0.391
relative viability (NCI-H2405; first compound 4 µM): 0.368
relative viability (201T; first compound 0.04 µM): 0.436
relative viability (201T; first compound 0.1265 µM): 0.451
relative viability (201T; first compound 0.4 µM): 0.437
relative viability (201T; first compound 1.265 µM): 0.405
relative viability (201T; first compound 4 µM): 0.431
relative viability (NCI-H1650; first compound 0.04 µM): 0.401
relative viability (NCI-H1650; first compound 0.1265 µM): 0.307
relative viability (NCI-H1650; first compound 0.4 µM): 0.36
relative viability (NCI-H1650; first compound 1.265 µM): 0.364
relative viability (NCI-H1650; first compound 4 µM): 0.403
relative viability (NCI-H1993): 0.492
